In patent publication US4503043A, “Substituted acyl derivatives of octahydro-1H-isoindole-1-carboxylic acids” (Warner-Lambert Company, priority 1982, dated 1985):
Counter-ions that a name gives are not always drawn.

Biological target: T1, guinea pig serum ACE (angiotensin converting enzyme) (Cavia porcellus, UniProt H0UWL7)
T1 construct: ACE from guinea pig serum; from tissue; host or cells: guinea pig serum
T1 sequence (H0UWL7 33-1302): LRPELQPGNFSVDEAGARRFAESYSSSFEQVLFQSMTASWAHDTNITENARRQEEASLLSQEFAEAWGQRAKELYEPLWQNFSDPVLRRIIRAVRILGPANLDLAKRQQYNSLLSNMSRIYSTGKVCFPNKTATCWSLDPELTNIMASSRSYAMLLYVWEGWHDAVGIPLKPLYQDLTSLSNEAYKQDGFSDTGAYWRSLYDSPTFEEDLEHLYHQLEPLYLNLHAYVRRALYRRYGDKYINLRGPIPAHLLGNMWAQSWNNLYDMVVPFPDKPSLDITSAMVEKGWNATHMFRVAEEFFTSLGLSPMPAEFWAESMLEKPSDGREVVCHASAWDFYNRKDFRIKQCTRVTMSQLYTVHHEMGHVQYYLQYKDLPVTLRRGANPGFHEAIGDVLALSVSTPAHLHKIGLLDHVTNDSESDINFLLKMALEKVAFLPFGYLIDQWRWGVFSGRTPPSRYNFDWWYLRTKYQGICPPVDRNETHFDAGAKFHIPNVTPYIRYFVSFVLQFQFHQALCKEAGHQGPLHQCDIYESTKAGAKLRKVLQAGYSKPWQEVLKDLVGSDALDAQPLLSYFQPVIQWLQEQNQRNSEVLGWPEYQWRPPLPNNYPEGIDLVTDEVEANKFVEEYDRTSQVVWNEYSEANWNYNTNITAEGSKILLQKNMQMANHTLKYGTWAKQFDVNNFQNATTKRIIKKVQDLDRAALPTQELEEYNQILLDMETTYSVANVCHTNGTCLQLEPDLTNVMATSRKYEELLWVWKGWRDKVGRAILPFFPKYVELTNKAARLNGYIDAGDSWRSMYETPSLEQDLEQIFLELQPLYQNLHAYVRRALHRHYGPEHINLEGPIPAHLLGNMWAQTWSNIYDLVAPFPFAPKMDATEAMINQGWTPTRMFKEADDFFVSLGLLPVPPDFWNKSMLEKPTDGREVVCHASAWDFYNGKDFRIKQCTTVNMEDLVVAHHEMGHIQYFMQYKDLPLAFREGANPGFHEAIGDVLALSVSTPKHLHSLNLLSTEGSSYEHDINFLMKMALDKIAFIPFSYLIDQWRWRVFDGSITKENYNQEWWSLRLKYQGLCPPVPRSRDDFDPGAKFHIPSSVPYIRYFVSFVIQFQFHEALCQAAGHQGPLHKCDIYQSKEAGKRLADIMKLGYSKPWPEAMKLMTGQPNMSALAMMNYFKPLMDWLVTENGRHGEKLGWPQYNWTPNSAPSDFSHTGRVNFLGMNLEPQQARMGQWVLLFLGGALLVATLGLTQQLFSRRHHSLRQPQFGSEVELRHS
Experiment: In vitro ACE Assay (angiotensin converting enzyme inhibitory activity)
Type: biochemical
Conditions: 10 min preincubation, substrate 3H-hippuryl-glycylglycine, 60 min at 37° C.
Procedure: In vitro ACE Assay: Angiotensin converting enzyme (ACE) inhibitory activity is determined by assaying guinea pig serum ACE in the presence and absence of the test compound. ACE from guinea pig serum and the test compounds are preincubated for 10 minutes before the addition of the labelled substrate ^3 H-hippuryl-glycylglycine. After a 60 minute incubation at 37° C. the reaction is stopped by the addition of 0.1N HCl. ACE cleaves the hippuryl-glycyl bond to form the dipeptide glycyl-glycine and ^3 H-hippuric acid. The ^3 H-hippuric acid is then extracted with ethyl acetate and the ACE inhibition of a given sample calculated on the basis of the ^3 H-hippuric acid generated.

Row | IC50 [nM] | Structure (SMILES)
1 | 1200 | CC(=O)SCCC(=O)N1CC2CCCCC2C1C(=O)O (centres unmarked) [Example 1, 2-[3-(Acetylthio)-1-oxopropyl]octahydro-1H-isoindole-1-carboxylic acid]
2 | 420 | CC(=O)SCC(C)C(=O)N1CC2CCCCC2C1C(=O)O (centres unmarked) [Example 3, 2-[3-(Acetylthio)-2-methyl-1-oxopropyl]octahydro-1H-isoindole-1-carboxylic acid]
3 | 28 | CC(CS)C(=O)N1CC2CCCCC2C1C(=O)O (centres unmarked) [Example 4, 2-[3-Mercapto-2-methyl-1-oxopropyl]octahydro-1H-isoindole-1-carboxylic acid]
4 | 280 | CC(=O)SCC(C)C(=O)N1C(=O)C2CCCCC2C1C(=O)O (centres unmarked) [Example 7, 2-[3-(Acetylthio)-2-methyl-1-oxopropyl]octahydro-3-oxo-1H-isoindole-1-carboxylic acid, dicyclohexylamine salt]
5 | 170 | CCOC(=O)C(CCc1ccccc1)NC(C)C(=O)N1CC2CCCCC2C1C(=O)O (centres unmarked) [Example 12, 2-[2-[(1-Carbethoxy-3-phenylpropyl)amino]-1-oxopropyl]-octahydro-1H-isoindole-1-carboxylic acid, hydrochloride]
6 | 2.6 | CC(NC(CCc1ccccc1)C(=O)O)C(=O)N1CC2CCCCC2C1C(=O)O (centres unmarked) [Example 13, 2-[2-[(1-Carboxy-3-phenylpropyl)amino]-1-oxopropyl]-octahydro-1H-isoindole-1-carboxylic acid]
7 | 340 | CCOC(=O)[C@H](CCc1ccccc1)N[C@@H](C)C(=O)N1C(=O)C2CCCCC2C1C(=O)O (some centres unmarked) [Example 14, 2-[2-[(1-carbethoxy-3-phenylpropyl)amino]-1-oxopropyl]-octahydro-3-oxo-1H-isoindole-1-carboxylic acid, hydrochloride]

Row | Structure (SMILES) | IC50 [nM]
8 | O=C(O)C1C2CCCCC2CN1C(=O)CCS (centres unmarked) [Example 2, 2-(3-Mercaptopropanoyl)octahydro-1H-isoindole-1-carboxylic acid, dicyclohexylamine salt] | 24
9 | CC(=O)SCCC(=O)N1C(=O)C2CCCCC2C1C(=O)O (centres unmarked) [Example 5, 2-[3-Acetylthio-1-oxopropyl]octahydro-3-oxo-1H-isoindole-1-carboxylic acid, dicyclohexylamine salt] | 660
10 | O=C(O)C1C2CCCCC2C(=O)N1C(=O)CCS (centres unmarked) [Example 6, 2-[3-Mercapto-1-oxopropyl]octahydro-3-oxo-1H-isoindole-1-carboxylic acid, dicyclohexylamine salt] | 13
11 | CC(CS)C(=O)N1C(=O)C2CCCCC2C1C(=O)O (centres unmarked) [Example 8, 2-[3-(Mercapto-2-methyl-1-oxopropyl]octahydro-3-oxo-1H-isoindole-1-carboxylic acid, dicyclohexylamine salt] | 14
